Data as given in ChEMBL document CHEMBL1921721, “Benzenepolycarboxylic acids with potential anti-hemorrhagic properties and structure-activity relationships” (Bioorg Med Chem, 2011).

Columns and labels:
Mus musculus [1] = assay: Antihemorrhagic activity in ddY mouse assessed as inhibition of Protobothrops flavoviridis venom-induced hemorrhagic lesion formation compound incubated with venom for 10 mins and administered subcutaneously measured after 24 hrs; type: functional, organism-based
[2] = Dissociation constant, pKa of the compound; type: physicochemical
Mus musculus [3] = assay: Ratio of caffeic acid IC50 to compound IC50 for antihemorrhagic activity in ddY mouse assessed as inhibition of Protobothrops flavoviridis venom-induced hemorrhagic lesion formation compound incubated with venom for 10 mins and administered subcutaneously measured after 24 hrs; type: functional
Mus musculus [4] = assay: Ratio of benzoic acid IC50 to compound IC50 for antihemorrhagic activity in ddY mouse assessed as inhibition of Protobothrops flavoviridis venom-induced hemorrhagic lesion formation compound incubated with venom for 10 mins and administered subcutaneously measured after 24 hrs; type: functional

Compound | IC50 (Mus musculus [1]) | pKa [2] | Ratio IC50 (Mus musculus [3]) | Ratio IC50 (Mus musculus [4])
O=C(O)c1ccccc1[N+](=O)[O-] | 260 nM | – | – | –
O=C(O)c1ccccc1Cl | 250 nM | 2.97 | – | –
O=C(O)/C=C/C=C/C(=O)O | 110 nM | – | – | –
O=C(O)c1ccc(C(=O)O)c(C(=O)O)c1 | 62 nM | 2.84 | – | –
O=C(O)c1cc(C(=O)O)cc(C(=O)O)c1 | 67 nM | 2.98 | – | –
O=C(O)c1cccc(O)c1 [3-HYDROXYBENZOIC ACID] | 200 nM | 4.08 | – | –
Cc1ccc(C(=O)O)cc1 [4-METHYLBENZOIC ACID] | 220 nM | 4.37 | – | –
O=C(O)c1ccc([N+](=O)[O-])cc1 [4-NITROBENZOIC ACID] | 240 nM | 3.42 | – | –
O=C(O)c1cc(C(=O)O)c(C(=O)O)c(C(=O)O)c1C(=O)O [BENZENEPENTACARBOXYLIC ACID] | 43 nM | 1.93 | – | –
O=C(O)c1ccccc1 [BENZOIC ACID] | 200 nM | – | – | –
O=C(O)/C=C/c1ccc(O)c(O)c1 [CAFFEIC ACID] | – | 4.58 | – | –
O=C(O)c1cccc(C(=O)O)c1 [ISOPHTHALIC ACID] | 100 nM | – | 2 | 2
O=C(O)c1c(C(=O)O)c(C(=O)O)c(C(=O)O)c(C(=O)O)c1C(=O)O [MELLITIC ACID] | 43 nM | 1.15 | – | –
O=C(O)c1ccc(O)cc1 [PARABEN] | 200 nM | 4.57 | – | –
O=C(O)c1ccccc1C(=O)O [PHTHALIC ACID] | 100 nM | – | 2 | 2
O=C(O)c1cc(C(=O)O)c(C(=O)O)cc1C(=O)O [PYROMELLITIC ACID] | 35 nM | 1.87 | – | –
O=C(O)c1ccccc1O [SALICYLIC ACID] | 200 nM | – | – | –
O=C(O)c1ccc(C(=O)O)cc1 [TEREPHTHALIC ACID] | 90 nM | – | 2 | 2
